Earlier results, collected in patent publication US20090142428A1, “Extracts from the Bark of Corynanthe Species and Use Thereof as Well as Medicaments, Dietetic Food Products and Pharmaceutical Preparations Containing Said Extracts” (DR. WILLMAR SCHWABE GMBH & CO. KG, priority 2005, published 2009).

System: 5-α-reductase
Conditions: uptake of finasteride

For CC(C)(C)NC(=O)[C@H]1CC[C@H]2[C@@H]3CC[C@H]4NC(=O)C=C[C@]4(C)[C@H]3CC[C@]12C [finasteride], the “reduction of the prostatic DHT concentration” value is listed as “up to 85%” and the “average reduction of the prostate size” value (period of up to 12 months) is listed as “about 20%”.
